US20060229299A1, “5ht2c Receptor antagonists in the treatment of schizophrenia” (priority 2003, published 2006)

Columns and labels:
[1] = system: 5-HT2C receptor relative to 5-HT2A and D2 receptors; assay: Relative 5-HT2C affinity (formula I, sum of 5-HT2C/5-HT2A and 5-HT2C/D2 affinity ratios); conditions: Table 2; sum of affinity ratios from data of Table 1
[2] = target: M1 muscarinic acetylcholine receptor (Homo sapiens, UniProt P11229); conditions: expressed as KD; cited from earlier work
D4 dopamine receptor [3] = target: T1, D4 dopamine receptor (Rattus norvegicus, UniProt P30729); conditions: cited from earlier work
T1 sequence (P30729 1-387): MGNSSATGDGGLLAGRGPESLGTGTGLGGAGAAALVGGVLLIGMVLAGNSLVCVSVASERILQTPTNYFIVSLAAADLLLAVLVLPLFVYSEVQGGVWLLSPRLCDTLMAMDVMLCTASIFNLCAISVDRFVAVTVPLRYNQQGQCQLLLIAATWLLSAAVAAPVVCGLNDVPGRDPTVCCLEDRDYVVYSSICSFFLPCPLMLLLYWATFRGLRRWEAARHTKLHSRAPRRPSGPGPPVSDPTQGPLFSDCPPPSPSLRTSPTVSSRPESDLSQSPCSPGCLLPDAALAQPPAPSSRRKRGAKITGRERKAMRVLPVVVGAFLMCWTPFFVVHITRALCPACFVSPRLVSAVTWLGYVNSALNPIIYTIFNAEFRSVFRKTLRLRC

[4] = target: T2, M4 muscarinic acetylcholine receptor (Homo sapiens, UniProt P08173); conditions: expressed as KD; cited from earlier work
T2 sequence (P08173 1-479): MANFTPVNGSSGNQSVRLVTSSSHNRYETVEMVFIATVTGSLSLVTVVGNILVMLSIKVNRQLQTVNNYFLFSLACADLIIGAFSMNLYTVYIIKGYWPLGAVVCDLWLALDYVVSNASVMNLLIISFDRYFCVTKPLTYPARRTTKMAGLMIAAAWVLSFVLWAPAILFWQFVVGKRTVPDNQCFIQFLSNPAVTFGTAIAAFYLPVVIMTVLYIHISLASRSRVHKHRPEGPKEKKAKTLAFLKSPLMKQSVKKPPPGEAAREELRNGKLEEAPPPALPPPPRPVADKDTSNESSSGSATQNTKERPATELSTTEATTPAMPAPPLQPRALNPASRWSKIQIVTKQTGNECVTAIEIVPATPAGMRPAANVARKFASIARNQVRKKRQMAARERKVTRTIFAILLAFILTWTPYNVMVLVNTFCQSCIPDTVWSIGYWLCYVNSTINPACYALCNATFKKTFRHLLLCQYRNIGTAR

[5] = target: T3, M5 muscarinic acetylcholine receptor (Homo sapiens, UniProt P08912); conditions: expressed as KD; cited from earlier work
T3 sequence (P08912 1-532): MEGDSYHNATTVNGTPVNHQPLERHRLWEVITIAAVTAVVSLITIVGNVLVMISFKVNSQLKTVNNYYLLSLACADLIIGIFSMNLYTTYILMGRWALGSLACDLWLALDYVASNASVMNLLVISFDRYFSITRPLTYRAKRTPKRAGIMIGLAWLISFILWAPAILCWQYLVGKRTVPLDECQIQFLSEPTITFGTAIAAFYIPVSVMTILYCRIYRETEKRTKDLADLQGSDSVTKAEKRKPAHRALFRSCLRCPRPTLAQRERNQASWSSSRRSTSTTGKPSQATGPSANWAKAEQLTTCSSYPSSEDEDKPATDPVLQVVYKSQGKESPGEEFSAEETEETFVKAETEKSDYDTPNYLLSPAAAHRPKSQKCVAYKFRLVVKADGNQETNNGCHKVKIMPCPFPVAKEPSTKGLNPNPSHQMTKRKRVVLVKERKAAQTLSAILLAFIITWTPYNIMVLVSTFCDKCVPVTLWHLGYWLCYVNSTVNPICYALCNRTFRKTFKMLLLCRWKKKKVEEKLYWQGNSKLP

D1 dopamine receptor [6] = target: D1 dopamine receptor (Rattus norvegicus, UniProt P18901); conditions: cited from earlier work
D1 dopamine receptor (Rattus norvegicus, UniProt P18901), sequence (P18901 whole entry): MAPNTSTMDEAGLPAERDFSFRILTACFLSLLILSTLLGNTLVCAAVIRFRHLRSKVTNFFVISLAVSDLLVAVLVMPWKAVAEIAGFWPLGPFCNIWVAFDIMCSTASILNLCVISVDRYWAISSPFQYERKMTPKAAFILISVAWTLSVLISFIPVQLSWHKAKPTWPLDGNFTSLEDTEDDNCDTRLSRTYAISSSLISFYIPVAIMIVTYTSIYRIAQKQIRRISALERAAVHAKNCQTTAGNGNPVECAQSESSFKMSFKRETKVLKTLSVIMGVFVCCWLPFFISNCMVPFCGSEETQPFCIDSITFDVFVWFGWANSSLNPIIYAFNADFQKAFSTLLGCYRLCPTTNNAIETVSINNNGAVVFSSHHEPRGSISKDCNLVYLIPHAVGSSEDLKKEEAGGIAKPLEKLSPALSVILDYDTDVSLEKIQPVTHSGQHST

5-HT7 receptor [7] = target: 5-HT7 receptor (Rattus norvegicus, UniProt P32305); conditions: cited from earlier work
5-HT7 receptor (Rattus norvegicus, UniProt P32305), sequence (P32305 whole entry): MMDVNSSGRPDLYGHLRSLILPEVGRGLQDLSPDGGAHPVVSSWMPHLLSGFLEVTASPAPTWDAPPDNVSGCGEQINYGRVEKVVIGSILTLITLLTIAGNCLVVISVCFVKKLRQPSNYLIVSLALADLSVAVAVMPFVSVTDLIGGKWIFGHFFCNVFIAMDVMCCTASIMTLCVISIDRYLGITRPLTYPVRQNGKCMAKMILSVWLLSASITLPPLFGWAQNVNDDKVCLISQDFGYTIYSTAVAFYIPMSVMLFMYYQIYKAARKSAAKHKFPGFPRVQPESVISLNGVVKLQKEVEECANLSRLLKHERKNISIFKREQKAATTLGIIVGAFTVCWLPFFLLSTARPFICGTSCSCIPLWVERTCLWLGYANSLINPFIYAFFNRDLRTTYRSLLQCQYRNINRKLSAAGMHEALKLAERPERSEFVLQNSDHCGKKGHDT

5-HT2C/D2 = 5-HT2C/D2 receptor affinity ratio; format: binding, human; conditions: Table 2; affinity ratio from data of Table 1
[8] = target: M3 muscarinic acetylcholine receptor (Homo sapiens, UniProt P20309); conditions: expressed as KD; cited from earlier work
M3 muscarinic acetylcholine receptor, sequence (P20309 whole entry): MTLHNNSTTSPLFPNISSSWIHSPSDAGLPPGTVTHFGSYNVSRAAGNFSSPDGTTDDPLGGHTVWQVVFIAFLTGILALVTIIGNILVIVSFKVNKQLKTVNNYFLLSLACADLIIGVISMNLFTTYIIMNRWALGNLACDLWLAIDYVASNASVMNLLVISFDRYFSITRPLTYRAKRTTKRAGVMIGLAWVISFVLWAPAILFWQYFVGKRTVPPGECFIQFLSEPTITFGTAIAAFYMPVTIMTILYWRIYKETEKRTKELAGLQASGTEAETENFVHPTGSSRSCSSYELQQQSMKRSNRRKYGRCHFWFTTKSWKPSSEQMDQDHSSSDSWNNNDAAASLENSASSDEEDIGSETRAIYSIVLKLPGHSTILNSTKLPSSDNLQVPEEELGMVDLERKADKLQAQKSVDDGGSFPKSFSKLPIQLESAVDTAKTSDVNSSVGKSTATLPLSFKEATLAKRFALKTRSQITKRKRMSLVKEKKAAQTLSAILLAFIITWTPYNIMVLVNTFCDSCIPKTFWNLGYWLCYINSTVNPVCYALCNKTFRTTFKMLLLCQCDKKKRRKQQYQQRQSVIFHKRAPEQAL

5-HT6 receptor = 5-HT6 receptor (Rattus norvegicus, UniProt P31388); conditions: cited from earlier work
5-HT6 receptor, sequence (P31388 whole entry): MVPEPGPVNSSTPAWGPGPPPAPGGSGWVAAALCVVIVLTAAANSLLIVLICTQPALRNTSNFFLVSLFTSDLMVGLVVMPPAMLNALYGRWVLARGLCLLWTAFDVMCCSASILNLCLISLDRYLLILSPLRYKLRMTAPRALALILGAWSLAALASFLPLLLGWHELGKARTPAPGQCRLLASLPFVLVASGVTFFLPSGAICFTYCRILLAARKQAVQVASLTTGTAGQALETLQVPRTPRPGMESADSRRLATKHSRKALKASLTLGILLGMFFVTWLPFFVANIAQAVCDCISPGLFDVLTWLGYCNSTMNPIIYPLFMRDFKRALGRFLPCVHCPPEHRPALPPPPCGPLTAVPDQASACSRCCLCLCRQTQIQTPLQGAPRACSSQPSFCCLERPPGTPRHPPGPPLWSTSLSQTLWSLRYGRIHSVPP

5-HT2A/D2 = 5-HT2A/D2 receptor affinity ratio; format: binding, human; conditions: Table 2; affinity ratio from data of Table 1
[9] = target: M2 muscarinic acetylcholine receptor (Homo sapiens, UniProt P08172); conditions: expressed as KD; cited from earlier work
M2 muscarinic acetylcholine receptor, sequence (P08172 whole entry): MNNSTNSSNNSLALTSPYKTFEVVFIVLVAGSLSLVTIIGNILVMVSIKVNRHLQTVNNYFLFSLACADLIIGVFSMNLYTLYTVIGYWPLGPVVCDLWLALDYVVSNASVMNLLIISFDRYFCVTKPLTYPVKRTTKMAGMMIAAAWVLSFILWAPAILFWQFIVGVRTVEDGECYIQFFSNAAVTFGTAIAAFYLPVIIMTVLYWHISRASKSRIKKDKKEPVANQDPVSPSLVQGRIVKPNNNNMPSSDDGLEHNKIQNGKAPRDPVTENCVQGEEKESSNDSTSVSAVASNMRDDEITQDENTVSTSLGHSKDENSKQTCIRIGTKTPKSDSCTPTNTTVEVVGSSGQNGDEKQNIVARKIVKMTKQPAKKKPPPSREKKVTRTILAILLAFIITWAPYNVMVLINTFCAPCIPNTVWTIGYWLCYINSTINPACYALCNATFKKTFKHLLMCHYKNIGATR

5-HT2C/5-HT2A = 5-HT2C/5-HT2A receptor affinity ratio; format: binding, human; conditions: Table 2; affinity ratio from data of Table 1
5-HT1A receptor [10] = target: 5-HT1A receptor (Homo sapiens, UniProt P08908); conditions: cited from earlier work
5-HT1A receptor (Homo sapiens, UniProt P08908), sequence (P08908 whole entry): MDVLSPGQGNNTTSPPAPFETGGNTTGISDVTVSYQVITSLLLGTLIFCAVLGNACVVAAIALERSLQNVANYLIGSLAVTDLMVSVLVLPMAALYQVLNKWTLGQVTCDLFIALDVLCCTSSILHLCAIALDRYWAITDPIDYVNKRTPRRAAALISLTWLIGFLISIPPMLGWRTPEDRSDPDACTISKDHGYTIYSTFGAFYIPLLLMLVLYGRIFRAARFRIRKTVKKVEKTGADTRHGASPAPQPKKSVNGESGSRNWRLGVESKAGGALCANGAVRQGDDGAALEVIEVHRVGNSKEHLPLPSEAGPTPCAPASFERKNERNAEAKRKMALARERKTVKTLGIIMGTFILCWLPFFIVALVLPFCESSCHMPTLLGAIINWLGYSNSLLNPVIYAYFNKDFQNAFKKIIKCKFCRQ

5-HT3 receptor = target: T4, 5-HT3 receptor (Mus musculus, UniProt P23979); conditions: cited from earlier work
T4 sequence (P23979 24-489): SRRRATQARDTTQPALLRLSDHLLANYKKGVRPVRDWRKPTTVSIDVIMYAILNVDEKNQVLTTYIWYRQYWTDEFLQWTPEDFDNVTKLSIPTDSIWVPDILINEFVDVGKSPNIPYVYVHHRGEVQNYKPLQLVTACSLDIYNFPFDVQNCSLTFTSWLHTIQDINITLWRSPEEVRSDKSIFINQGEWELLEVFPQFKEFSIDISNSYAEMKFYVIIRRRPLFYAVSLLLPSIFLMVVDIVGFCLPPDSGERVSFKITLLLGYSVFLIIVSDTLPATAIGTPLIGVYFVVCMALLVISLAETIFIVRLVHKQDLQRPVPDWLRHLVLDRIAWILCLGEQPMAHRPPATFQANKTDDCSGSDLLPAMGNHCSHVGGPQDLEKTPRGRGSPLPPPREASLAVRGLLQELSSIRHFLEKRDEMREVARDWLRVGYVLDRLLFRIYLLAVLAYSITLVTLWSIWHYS

5-HT2C receptor = target: T5, 5-HT2C receptor (Sus scrofa, UniProt K7GSR7); conditions: pig; cited from earlier work
T5 sequence (K7GSR7 1-457): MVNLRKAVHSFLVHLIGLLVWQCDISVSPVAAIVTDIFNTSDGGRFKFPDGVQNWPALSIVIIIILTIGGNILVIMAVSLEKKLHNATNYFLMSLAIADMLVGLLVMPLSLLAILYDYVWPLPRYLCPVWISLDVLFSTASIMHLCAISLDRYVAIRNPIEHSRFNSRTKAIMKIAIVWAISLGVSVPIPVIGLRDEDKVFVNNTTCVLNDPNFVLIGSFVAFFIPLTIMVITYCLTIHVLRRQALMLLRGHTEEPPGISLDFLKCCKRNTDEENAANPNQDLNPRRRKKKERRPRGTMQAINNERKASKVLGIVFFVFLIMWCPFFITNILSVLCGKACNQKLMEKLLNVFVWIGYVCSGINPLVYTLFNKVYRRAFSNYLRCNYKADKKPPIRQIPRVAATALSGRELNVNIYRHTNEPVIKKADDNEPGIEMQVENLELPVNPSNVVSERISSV

sigma, σ receptor = conditions: guinea-pig; cited from earlier work
[11] = target: D2-L (long form of D2 receptor) (Homo sapiens, UniProt P14416); conditions: cited from earlier work
D2-L (long form of D2 receptor), sequence (P14416 whole entry): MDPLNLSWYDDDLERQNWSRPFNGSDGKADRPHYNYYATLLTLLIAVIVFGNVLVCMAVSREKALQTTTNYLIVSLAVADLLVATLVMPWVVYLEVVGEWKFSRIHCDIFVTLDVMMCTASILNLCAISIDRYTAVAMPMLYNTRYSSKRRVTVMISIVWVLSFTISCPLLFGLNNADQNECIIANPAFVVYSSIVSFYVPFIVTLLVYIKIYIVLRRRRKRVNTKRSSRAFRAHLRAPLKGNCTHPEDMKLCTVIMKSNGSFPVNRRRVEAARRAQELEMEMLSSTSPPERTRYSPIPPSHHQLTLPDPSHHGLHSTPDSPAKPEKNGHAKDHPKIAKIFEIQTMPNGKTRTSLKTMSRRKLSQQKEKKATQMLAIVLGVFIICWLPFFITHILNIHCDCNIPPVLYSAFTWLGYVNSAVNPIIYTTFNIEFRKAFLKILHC

[12] = target: mACh, muscarinic acetylcholine receptor; conditions: rat; cited from earlier work
D4 dopamine receptor [13] = target: T6, D4 dopamine receptor (Homo sapiens, UniProt P21917); conditions: human; cited from earlier work
T6 sequence (P21917 1-419): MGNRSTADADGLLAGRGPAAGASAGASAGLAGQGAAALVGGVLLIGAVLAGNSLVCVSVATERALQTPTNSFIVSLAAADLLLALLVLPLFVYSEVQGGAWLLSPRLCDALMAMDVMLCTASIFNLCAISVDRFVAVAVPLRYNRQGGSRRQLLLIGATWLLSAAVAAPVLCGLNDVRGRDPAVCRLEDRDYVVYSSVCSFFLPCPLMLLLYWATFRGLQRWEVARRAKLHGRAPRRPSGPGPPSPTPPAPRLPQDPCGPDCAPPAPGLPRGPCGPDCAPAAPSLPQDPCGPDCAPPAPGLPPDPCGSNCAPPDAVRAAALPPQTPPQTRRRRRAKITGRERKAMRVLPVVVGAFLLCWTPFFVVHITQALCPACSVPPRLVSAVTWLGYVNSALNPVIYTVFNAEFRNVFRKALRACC

α2-adrenoceptor [14] = conditions: species for α2 not stated; cited from earlier work
H1 histamine receptor = H1 histamine receptor (Cavia porcellus, UniProt P31389); conditions: guinea-pig; cited from earlier work
H1 histamine receptor, sequence (P31389 whole entry): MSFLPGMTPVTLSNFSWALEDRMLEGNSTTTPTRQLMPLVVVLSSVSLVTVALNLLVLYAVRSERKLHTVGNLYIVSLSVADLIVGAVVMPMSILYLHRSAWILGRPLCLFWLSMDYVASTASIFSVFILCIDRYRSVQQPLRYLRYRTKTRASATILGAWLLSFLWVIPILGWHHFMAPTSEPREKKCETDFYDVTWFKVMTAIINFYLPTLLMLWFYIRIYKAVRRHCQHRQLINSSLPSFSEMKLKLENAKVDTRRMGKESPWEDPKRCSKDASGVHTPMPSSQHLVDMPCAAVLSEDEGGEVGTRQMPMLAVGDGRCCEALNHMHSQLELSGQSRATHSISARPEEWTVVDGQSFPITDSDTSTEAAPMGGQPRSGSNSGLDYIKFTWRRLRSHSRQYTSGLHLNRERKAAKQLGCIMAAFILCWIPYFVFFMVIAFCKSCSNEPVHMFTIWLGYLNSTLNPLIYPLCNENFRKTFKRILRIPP

5-HT7 receptor [15] = target: 5-HT7 receptor (Mus musculus, UniProt P32304); conditions: cited from earlier work
5-HT7 receptor (Mus musculus, UniProt P32304), sequence (P32304 whole entry): as the sequence (P32305 whole entry) above, with G27R, P39S, L53P, P279S, S438C counted along it

α1-adrenoceptor [16] = conditions: species for α1 not given; cited from earlier work
[17] = target: D2-S (short form of D2 receptor) (Homo sapiens, UniProt P14416); conditions: cited from earlier work
α1-adrenoceptor [18] = conditions: human, expressed as KD; cited from earlier work
α2-adrenoceptor [19] = conditions: human, expressed as KD; cited from earlier work
[20] = target: mACh, muscarinic acetylcholine receptor; conditions: human, expressed as KD; cited from earlier work
D1 dopamine receptor [21] = target: D1 dopamine receptor (Homo sapiens, UniProt P21728); conditions: cited from earlier work
D1 dopamine receptor (Homo sapiens, UniProt P21728), sequence (P21728 whole entry): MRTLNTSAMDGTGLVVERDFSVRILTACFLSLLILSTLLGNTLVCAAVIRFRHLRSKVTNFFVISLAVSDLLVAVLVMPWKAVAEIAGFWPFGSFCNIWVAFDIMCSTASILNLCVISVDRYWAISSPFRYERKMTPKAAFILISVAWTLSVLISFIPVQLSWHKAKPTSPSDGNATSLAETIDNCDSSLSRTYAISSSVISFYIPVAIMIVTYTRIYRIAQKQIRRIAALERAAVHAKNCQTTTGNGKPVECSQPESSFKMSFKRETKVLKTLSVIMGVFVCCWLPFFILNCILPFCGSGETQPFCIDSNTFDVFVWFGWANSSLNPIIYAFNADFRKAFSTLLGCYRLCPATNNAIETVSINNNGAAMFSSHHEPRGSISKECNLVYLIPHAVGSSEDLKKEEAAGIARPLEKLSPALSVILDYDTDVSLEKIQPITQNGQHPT

5-HT1A receptor [22] = target: T7, 5-HT1A receptor (Rattus norvegicus, UniProt P19327); conditions: cited from earlier work
T7 sequence (P19327 1-422): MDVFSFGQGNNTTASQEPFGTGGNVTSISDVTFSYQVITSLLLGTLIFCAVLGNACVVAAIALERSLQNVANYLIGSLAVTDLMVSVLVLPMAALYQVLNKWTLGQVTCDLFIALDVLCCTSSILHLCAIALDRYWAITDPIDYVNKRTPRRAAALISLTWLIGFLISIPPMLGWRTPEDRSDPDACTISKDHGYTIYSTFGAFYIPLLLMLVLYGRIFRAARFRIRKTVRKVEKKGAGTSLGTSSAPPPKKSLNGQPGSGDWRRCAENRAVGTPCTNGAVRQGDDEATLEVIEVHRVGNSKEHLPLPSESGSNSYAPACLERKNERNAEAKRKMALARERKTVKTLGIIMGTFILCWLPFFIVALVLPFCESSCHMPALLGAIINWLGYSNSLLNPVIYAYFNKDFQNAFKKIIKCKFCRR

M1 muscarinic acetylcholine receptor, sequence (P11229 whole entry): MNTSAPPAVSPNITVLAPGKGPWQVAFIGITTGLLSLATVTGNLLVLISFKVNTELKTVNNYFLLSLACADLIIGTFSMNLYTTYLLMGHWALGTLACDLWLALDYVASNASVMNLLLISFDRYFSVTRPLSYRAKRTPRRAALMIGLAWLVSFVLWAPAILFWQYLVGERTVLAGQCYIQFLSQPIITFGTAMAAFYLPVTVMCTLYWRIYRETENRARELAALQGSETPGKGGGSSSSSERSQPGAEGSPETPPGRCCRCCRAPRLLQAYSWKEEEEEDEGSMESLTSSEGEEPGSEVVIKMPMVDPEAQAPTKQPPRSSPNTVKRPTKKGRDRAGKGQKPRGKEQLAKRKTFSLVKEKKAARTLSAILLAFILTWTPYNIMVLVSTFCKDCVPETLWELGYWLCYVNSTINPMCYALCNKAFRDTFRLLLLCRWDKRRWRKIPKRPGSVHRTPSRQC

SMILES: CN1CCN(C2=Nc3cc(F)ccc3Cc3ccccc32)CC1 [Fluperlapine]
- (2C/2A) + (2C/D2) [1]: 2.13
- M1 affinity value (−log KD) [2]: 8.1^15
- D4 affinity value (−logKi) (D4 dopamine receptor [3]): 6.9^4
- M4 affinity value (−log KD) [4]: 7.9^15
- M5 affinity value (−log KD) [5]: 7.7^15
- D1 affinity value (−logKi) (D1 dopamine receptor [6]): 6.8^8
- 5-HT7 affinity value (−logKi) (5-HT7 receptor [7]): 8.3^2
- 5-HT2C/D2 (2C/D2) (5-HT2C/D2): 1.18
- M3 affinity value (−log KD) [8]: 7.4^15
- 5-HT6 affinity value (−logKi) (5-HT6 receptor): 7.8^2
- 5-HT2A/D2 (5-HT2A/D2): 1.25
- M2 affinity value (−log KD) [9]: 7.1^15
- 5-HT2C/5-HT2A (2C/2A) (5-HT2C/5-HT2A): 0.95

SMILES: CN1CCN(C2=Nc3ccccc3Oc3ccc(Cl)cc32)CC1 [Loxapine]
- M1 affinity value (−log KD) [2]: 7.2^15
- D4 affinity value (−logKi) (D4 dopamine receptor [3]): 7.9^4
- M4 affinity value (−log KD) [4]: 6.5^15
- M5 affinity value (−log KD) [5]: 6.6^15
- D1 affinity value (−logKi) (D1 dopamine receptor [6]): 7.5^18
- M3 affinity value (−log KD) [8]: 6.4^15
- 5-HT1A affinity value (−logKi) (5-HT1A receptor [10]): 5.5^5

SMILES: NC(=O)C1(N2CCCCC2)CCN(CCCC(=O)c2ccc(F)cc2)CC1 [Pipamperone]
- 5-HT3 affinity value (−logKi) (5-HT3 receptor): <5.3^6
- 5-HT2C affinity value (−logKi) (5-HT2C receptor): 6.9^6
- sigma affinity value (−logKi) (sigma, σ receptor): 7.3^6
- D2-L affinity value (−logKi) [11]: 6.9^6
- (2C/2A) + (2C/D2) [1]: 1.83
- mACh affinity value (−logKi) [12]: <5.3^6
- D4 affinity value (−logKi) (D4 dopamine receptor [13]): 8.3^6
- α2 affinity value (−logKi) (α2-adrenoceptor [14]): 6.2^6
- H1 affinity value (−logKi) (H1 histamine receptor): <5.3^6
- 5-HT7 affinity value (−logKi) (5-HT7 receptor [15]): 6.8^6
- α1 affinity value (−logKi) (α1-adrenoceptor [16]): 7.2^6
- D2-S affinity value (−logKi) [17]: 7.0^6

SMILES: CN1CCN(CC/C=C2/c3ccccc3Sc3ccc(S(=O)(=O)N(C)C)cc32)CC1 [Thiothixene]
- (2C/2A) + (2C/D2) [1]: 1.43
- D4 affinity value (−logKi) (D4 dopamine receptor [3]): 7.1^4
- M4 affinity value (−log KD) [4]: 5.8^15
- M5 affinity value (−log KD) [5]: 5.4^15
- 5-HT7 affinity value (−logKi) (5-HT7 receptor [7]): 7.9^2
- M3 affinity value (−log KD) [8]: 5.8^15
- α1 affinity value (−log KD) (α1-adrenoceptor [18]): 8.0^16
- 5-HT6 affinity value (−logKi) (5-HT6 receptor): 7.4^2
- M2 affinity value (−log KD) [9]: 5.7^15
- α2 affinity value (−log KD) (α2-adrenoceptor [19]): 6.7^16
- mACh affinity value (−log KD) [20]: 5.5^16
- D1 affinity value (−logKi) (D1 dopamine receptor [21]): 6.5^9

SMILES: CN(C)CCOC1=Cc2ccccc2Sc2ccc(Cl)cc21 [Zotepine]
- 5-HT2C affinity value (−logKi) (5-HT2C receptor): 8.5^6
- sigma affinity value (−logKi) (sigma, σ receptor): 6.3^6
- (2C/2A) + (2C/D2) [1]: 2.02
- mACh affinity value (−logKi) [12]: 6.3^6
- D4 affinity value (−logKi) (D4 dopamine receptor [3]): 8.2^4
- M4 affinity value (−log KD) [4]: 7.1^15
- M5 affinity value (−log KD) [5]: 6.6^15
- 5-HT7 affinity value (−logKi) (5-HT7 receptor [7]): 8.8^2
- D4 affinity value (−logKi) (D4 dopamine receptor [13]): 7.4^6
- 5-HT6 affinity value (−logKi) (5-HT6 receptor): 9.0^2
- H1 affinity value (−logKi) (H1 histamine receptor): 8.5^6
- α1 affinity value (−logKi) (α1-adrenoceptor [16]): 8.5^6
- 5-HT1A affinity value (−logKi) (5-HT1A receptor [22]): 6.5^6
